Read-outs that look alike come from different tables or passages of the source.
Target: T1, LPA1 (Mus musculus, UniProt P61793)
T1 construct: from tissue; host or cells: mouse brain (homogenate; forebrain of dosed C57BL6/N mice in the in vivo studies)
Experiment: In vivo brain LPA1 receptor occupancy with [3H]-OPC3497
Protocol: [^3H]-OPC3497 was diluted to 9.8 µCi/mL in saline and administered via IV injection to the lateral tail vein at a dose volume of 5 ml/kg at the times indicated. Mice were euthanized by decapitation, trunk blood collected into K3EDTA tubes and stored on wet ice, each brain rapidly dissected and the forebrain isolated, weighed and placed into a 5 ml polypropylene tube. Tissues were diluted with a 10 × volume of ice-cold binding buffer (50 mM HEPES, 100 mM NaCl, 2 mM EDTA, pH 7.4). Brains were homogenized and 350 µl of the homogenate was filtered over Whatman GF/B filters (GE Life Sciences, Marlborough, MA) pre-wetted with 0.5% polyethyleneimine. Filters were washed with cold 50 mM TRIS–HCl, 154 mM NaCl, 0.05% Tween 20, pH 7.4 twice and dried in an oven (~ 40–50 °C). 5 ml Ultima Gold F scintillation fluid (Perkin Elmer, Boston, MA, Boston, MA) was added to each tube and samples read on a Beckman LS6500 liquid scintillation counter. After all samples were collected, dissected, and filtered, the previously collected blood in K3EDTA tubes was centrifuged (1450 × g, 10 min, 4 °C) to separate plasma.

T1 sequence (P61793 whole entry): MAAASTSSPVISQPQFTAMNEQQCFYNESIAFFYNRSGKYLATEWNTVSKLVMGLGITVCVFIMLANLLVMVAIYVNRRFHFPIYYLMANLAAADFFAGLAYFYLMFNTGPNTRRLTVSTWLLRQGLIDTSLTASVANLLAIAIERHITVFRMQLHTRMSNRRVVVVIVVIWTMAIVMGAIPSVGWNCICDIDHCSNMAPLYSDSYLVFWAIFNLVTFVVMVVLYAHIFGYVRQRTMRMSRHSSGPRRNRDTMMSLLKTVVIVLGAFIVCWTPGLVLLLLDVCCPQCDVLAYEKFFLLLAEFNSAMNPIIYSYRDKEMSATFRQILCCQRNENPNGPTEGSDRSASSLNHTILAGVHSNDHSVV

time for which LPA1 occupancy was sustained (3 mg/kg oral, followed out to 7 days): 24 h
EC50 (once daily for 4 consecutive days (steady state), read-out: unbound brain EC50): 2.4 nM
LPA1 receptor occupancy ED50 (single oral dose 2 h prior to radioligand, mouse brain): 0.17 mg/kg
LPA1 receptor occupancy ED50 (single oral dose 24 h prior to radioligand, mouse brain): 0.19 mg/kg
EC50 (single oral dose, unbound brain concentration versus occupancy, read-out: unbound brain EC50 (Cu, brain)): 2.2 nM
LPA1 receptor occupancy ED50 (steady state: once daily for 4 days, occupancy 2 h after fourth dose): 0.03 mg/kg
SMILES: COc1ccc(NC(=O)N(c2ccccc2C(C)C)C2CCC(C(=O)O)CC2)c(OC(F)F)n1 (stereo not drawn) [PIPE-791]
